The supplement of paper PMC10307832

Experiments:
Test in all cases: relative viability (nuclei count vs DMSO), 5 days (fraction); higher = more cells survive
[1] = compound: CC(O)(CS(=O)(=O)c1ccc(F)cc1)C(=O)Nc1ccc(C#N)c(C(F)(F)F)c1 [Bicalutamide] + Nc1nc2[nH]cc(CCc3ccc(C(=O)N[C@@H](CCC(=O)O)C(=O)O)cc3)c2c(=O)[nH]1 [Pemetrexed] (partner 0.2 µM)
How it was run: (§1)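 Each reported value is a median over duplicate plates. It expresses relative viability: treated-well nuclei count divided by vehicle-well nuclei count. Lung cancer cell lines in 1536-well plates were dosed by pin tool a day after seeding, alone with one drug or with a fixed anchor-drug dose plus five library-drug doses (not always all listed) in √10 steps, and nuclei were counted after 5 days.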

[2] = compound: C(C(=O)C(=O)O)Br [Bromopyruvate] + CC(=O)c1c(C)c2cnc(Nc3ccc(N4CCNCC4)cn3)nc2n(C2CCCC2)c1=O [Palbociclib] (partner 0.5 µM)
How it was run: as §1

[3] = compound: CC(O)(CS(=O)(=O)c1ccc(F)cc1)C(=O)Nc1ccc(C#N)c(C(F)(F)F)c1 [Bicalutamide] + CS(=O)(=O)N1CCN(Cc2cc3nc(-c4cccc5[nH]ncc45)nc(N4CCOCC4)c3s2)CC1 [Pictilisib] (partner 1 µM)
How it was run: as §1

[4] = compound: C(C(=O)C(=O)O)Br [Bromopyruvate] + Cc1nc(NC(=O)N2CCC[C@H]2C(N)=O)sc1-c1ccnc(C(C)(C)C(F)(F)F)c1 [Alpelisib] (partner 2 µM)
How it was run: as §1

Cell Line	relative viability ([1]; first compound 0.08 µM)	relative viability ([1]; first compound 0.253 µM)	relative viability ([1]; first compound 0.8 µM)	relative viability ([1]; first compound 2.53 µM)	relative viability ([2]; first compound 1 µM)	relative viability ([2]; first compound 3.162 µM)	relative viability ([2]; first compound 10 µM)	relative viability ([2]; first compound 31.62 µM)	relative viability ([2]; first compound 100 µM)	relative viability ([3]; first compound 0.08 µM)	relative viability ([3]; first compound 0.253 µM)	relative viability ([3]; first compound 0.8 µM)	relative viability ([3]; first compound 2.53 µM)	relative viability ([4]; first compound 1 µM)	relative viability ([4]; first compound 3.162 µM)	relative viability ([4]; first compound 10 µM)	relative viability ([4]; first compound 31.62 µM)	relative viability ([4]; first compound 100 µM)
NCI-H2342	0.764	0.761	0.89	0.751	0.487	0.55	0.476	0.485	0.458	–	–	–	–	–	–	–	–	–
SK-MES-1	1.04	0.867	0.981	0.832	0.352	0.344	0.29	0.32	0.319	0.351	0.39	0.382	0.357	0.842	0.878	0.915	0.868	1.01
NCI-H1993	0.66	0.669	0.557	0.597	0.536	0.661	0.813	0.629	0.775	–	0.764	0.744	0.671	0.691	0.705	0.668	0.642	0.644
HCC-366	0.16	0.189	0.191	0.163	0.405	0.361	0.43	0.395	0.38	0.124	0.101	0.147	0.0426	0.494	0.403	0.503	0.519	0.41
201T	0.306	0.33	0.328	0.36	0.341	0.348	0.344	0.35	0.382	0.685	0.658	0.742	0.674	1.02	0.989	0.944	0.998	1.08
HCC-827	0.261	0.218	0.289	0.306	0.434	0.542	0.472	0.541	0.517	1.01	0.85	1.1	1.04	1.03	0.988	0.972	1.02	0.967
NCI-H650	0.88	0.932	0.994	0.992	0.385	0.306	0.316	0.338	0.335	0.726	0.671	0.951	0.768	1.03	1.2	1.28	1.07	1.02
NCI-H2085	0.837	0.708	0.912	0.775	0.491	0.469	0.489	0.539	0.521	0.445	0.461	0.442	0.39	0.968	0.785	0.894	0.975	0.851
NCI-H596	0.489	0.459	0.56	0.552	–	–	–	–	–	0.409	0.623	0.404	0.475	0.435	0.47	0.551	0.477	0.491
SK-LU-1	1.03	1.02	1.19	0.928	0.372	0.363	0.365	0.346	0.428	0.6	0.503	0.715	0.59	1.09	1.05	0.939	0.874	0.86
A-427	0.986	0.968	1.11	0.913	0.51	0.552	0.551	0.536	0.497	0.676	0.812	0.867	0.628	1.12	1.07	1.09	1.05	1.02
NCI-H460	0.0574	0.0589	0.0592	0.0687	0.161	0.247	0.148	0.196	0.186	0.343	0.335	0.478	0.356	0.432	0.603	0.594	0.374	0.436
NCI-H1703	–	–	–	–	–	–	–	–	–	0.235	0.261	0.236	0.231	0.364	0.347	0.294	0.345	0.33
NCI-H1792	0.825	0.658	1.16	0.831	0.673	0.698	0.684	–	0.656	0.299	0.224	0.284	0.245	0.715	0.788	0.906	0.708	0.703
Calu-6	–	–	–	–	–	–	–	–	–	1.06	0.87	1.04	0.839	1.09	1.02	1.05	0.952	0.615
SW 1573	0.952	0.749	1.02	0.819	0.401	0.395	0.373	0.266	0.0467	0.564	0.475	0.461	0.535	0.761	0.84	0.876	0.678	0.761
RERF-LC-KJ	0.471	0.457	0.517	0.492	1.04	1.18	1.19	1.14	0.966	0.628	0.506	0.634	0.613	0.688	1.09	0.825	0.773	0.82
EMC-BAC-2	0.447	0.41	0.489	0.444	0.434	0.546	0.554	0.506	0.533	0.517	0.531	0.527	0.456	0.658	0.771	0.897	0.747	0.826
LK-2	0.233	0.273	0.379	0.303	0.688	0.858	0.797	0.637	0.678	0.591	0.442	0.754	0.667	0.565	0.991	1.14	1.16	1.22
NCI-H2228	0.343	0.351	0.334	0.323	0.791	0.9	0.665	0.85	0.775	0.347	0.341	0.425	0.409	0.656	0.866	0.806	0.698	0.631
NCI-H322M	0.594	0.553	0.635	0.709	0.463	0.438	0.447	0.421	0.454	0.469	0.53	0.573	0.55	0.804	0.73	0.843	0.779	0.798

Cell Line	relative viability ([1]; first compound 0.08 µM)	relative viability ([1]; first compound 0.253 µM)	relative viability ([1]; first compound 0.8 µM)	relative viability ([1]; first compound 2.53 µM)	relative viability ([2]; first compound 1 µM)	relative viability ([2]; first compound 3.162 µM)	relative viability ([2]; first compound 10 µM)	relative viability ([2]; first compound 31.62 µM)	relative viability ([2]; first compound 100 µM)	relative viability ([3]; first compound 0.08 µM)	relative viability ([3]; first compound 0.253 µM)	relative viability ([3]; first compound 0.8 µM)	relative viability ([3]; first compound 2.53 µM)	relative viability ([4]; first compound 1 µM)	relative viability ([4]; first compound 3.162 µM)	relative viability ([4]; first compound 10 µM)	relative viability ([4]; first compound 31.62 µM)	relative viability ([4]; first compound 100 µM)
NCI-H1975	0.316	0.311	0.299	0.306	0.66	0.619	0.566	0.551	0.569	0.291	0.331	0.329	0.233	0.77	0.752	0.606	0.635	0.593
NCI-H1944	0.562	0.599	0.681	0.611	0.32	0.333	0.335	0.319	0.311	0.4	0.296	0.334	0.327	0.8	0.85	0.904	0.821	0.858
LU99A	0.19	0.163	0.206	0.183	0.404	0.414	0.478	0.493	0.2	0.295	0.321	0.364	0.209	0.516	0.491	0.512	0.561	0.483
NCI-H2405	1.07	1.01	1.35	1.04	0.51	0.53	0.549	–	0.458	0.478	0.421	0.556	0.368	0.773	0.779	0.89	0.583	0.737
NCI-H2023	0.267	0.175	0.279	0.223	0.406	0.382	0.4	0.411	0.385	0.279	0.21	0.253	0.178	0.613	0.728	0.593	0.646	0.542
HCC-15	0.23	0.231	0.221	0.223	0.654	0.677	0.846	0.771	0.741	0.714	0.699	0.951	0.77	0.929	0.947	0.962	0.852	0.8
HCC-44	0.675	0.707	0.637	0.688	0.985	0.912	0.944	1.01	0.991	0.702	0.534	0.727	0.479	0.781	0.83	0.859	0.916	0.863
COR-L23	0.204	0.203	0.184	0.196	0.239	0.283	0.232	0.255	0.178	0.896	0.724	0.945	0.765	0.771	0.849	0.9	0.665	0.405
HCC-78	0.947	0.708	0.962	0.939	0.446	0.471	0.455	0.514	0.407	0.202	0.179	0.208	0.169	0.305	0.354	0.421	0.452	0.373
NCI-H1299	–	–	–	–	–	–	–	–	–	0.909	0.698	0.823	0.492	1.01	1.04	1.09	1.04	1.06
ABC-1	–	–	–	–	0.662	–	–	–	0.792	0.812	0.731	1.06	0.758	0.915	1.04	–	1.04	0.878
NCI-H1650	0.353	0.411	0.433	0.365	0.328	0.328	0.309	0.368	0.345	0.701	0.502	0.825	0.597	–	–	–	–	–
ChaGo-K-1	0.256	0.252	0.251	0.247	0.93	0.947	0.979	0.87	0.876	0.818	0.606	0.892	0.523	–	–	–	–	–
NCI-H1648	–	–	0.745	0.774	0.211	0.242	0.283	0.298	0.328	–	–	–	–	–	–	–	–	–
NCI-H727	–	–	–	–	0.702	0.654	0.663	0.646	0.648	0.415	0.456	0.377	0.423	0.683	0.66	0.629	0.547	0.597
NCI-H1563	0.871	0.69	0.919	0.697	–	–	–	–	–	0.641	0.596	0.644	0.599	0.984	1.02	0.825	0.978	0.809
A549	–	–	–	–	–	–	–	–	–	0.546	0.483	0.617	0.357	0.814	0.971	0.834	0.794	0.726
NCI-H522	0.923	0.854	1.22	0.979	1.02	1.03	1	1.02	1.1	–	–	–	–	–	–	–	–	–
SW 900	0.444	0.47	0.562	0.467	0.524	0.486	0.536	0.589	0.5	–	–	–	–	–	–	–	–	–
IA-LM	–	–	–	–	–	–	–	–	–	0.368	0.389	0.422	0.507	0.756	0.776	0.887	0.836	0.821
EBC-1	–	–	–	–	–	–	–	–	–	0.41	0.362	0.378	0.23	0.888	0.82	0.802	0.79	0.747
